Experimental data from PubChem BioAssay (NCI).
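Results reflect a 48-hour exposure of cells in 96-well plates to compound at five concentrations. The concentration for 50% growth inhibition is given as GI50. TGI: total growth inhibition.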

Experiments:
Assay in all cases: growth of human tumour cells (NCI), 48 h
ACHN renal = test system: ACHN renal
HCT-116 colon = test system: HCT-116 colon
KM12 colon = test system: KM12 colon
LOX IMVI melanoma = test system: LOX IMVI melanoma
M14 melanoma = test system: M14 melanoma
OVCAR-5 ovarian = test system: OVCAR-5 ovarian
SNB-75 CNS = test system: SNB-75 CNS
UO-31 renal = test system: UO-31 renal
HL-60(TB) leukemia = test system: HL-60(TB) leukemia
SF-268 CNS = test system: SF-268 CNS

Structure (SMILES): COc1ccc(C(=O)NCCN(C)C)c2nc3ccccc3nc12
- TGI (ACHN renal): > 100 µM
- TGI (HCT-116 colon): 12.8 µM
- TGI (KM12 colon): 32.4 µM
- TGI (LOX IMVI melanoma): 6.48 µM
- TGI (M14 melanoma): > 34.5 µM
- TGI (OVCAR-5 ovarian): 16 µM
- TGI (SNB-75 CNS): 78 µM
- TGI (UO-31 renal): > 52 µM

Structure (SMILES): C(=N\Nc1nnn(Cc2ccccc2)n1)/c1ccccc1
- GI50 (ACHN renal): 16.1 µM
- TGI (ACHN renal): > 100 µM
- GI50 (HCT-116 colon): 3.82 µM
- TGI (HCT-116 colon): > 73.3 µM
- GI50 (HL-60(TB) leukemia): 1.3 µM
- TGI (HL-60(TB) leukemia): 11.7 µM
- GI50 (KM12 colon): 0.905 µM
- TGI (KM12 colon): > 100 µM
- GI50 (LOX IMVI melanoma): 6 µM
- TGI (LOX IMVI melanoma): > 100 µM
- GI50 (M14 melanoma): 1.31 µM
- TGI (M14 melanoma): 26.5 µM
- GI50 (OVCAR-5 ovarian): > 43.7 µM
- TGI (OVCAR-5 ovarian): > 96.6 µM
- GI50 (SF-268 CNS): 8.28 µM
- TGI (SF-268 CNS): > 89.3 µM
- GI50 (SNB-75 CNS): 3.67 µM
- TGI (SNB-75 CNS): 36.8 µM
- GI50 (UO-31 renal): 9.68 µM
- TGI (UO-31 renal): > 100 µM

Structure (SMILES): COC(=O)C1(C(=O)OC)CC(=O)c2cc3c(cc2-c2c(cc(OC)c(OC)c2OC)C1)OCO3
- TGI (ACHN renal): > 211 µM
- TGI (HCT-116 colon): > 211 µM
- TGI (HL-60(TB) leukemia): > 211 µM
- TGI (KM12 colon): > 211 µM
- TGI (LOX IMVI melanoma): > 211 µM
- TGI (OVCAR-5 ovarian): > 211 µM
- TGI (SF-268 CNS): > 211 µM

Structure (SMILES): CN(C)C(=O)O[C@H]1CN[C@H](C#Cc2cc3ncnc(Nc4ccc(OCc5cccc(F)c5)c(Cl)c4)c3s2)C1
- GI50 (ACHN renal): 6.27 µM
- TGI (ACHN renal): > 25 µM
- GI50 (HCT-116 colon): 12.1 µM
- TGI (HCT-116 colon): > 25 µM
- GI50 (HL-60(TB) leukemia): 5.22 µM
- TGI (HL-60(TB) leukemia): 15 µM
- GI50 (KM12 colon): 7.37 µM
- TGI (KM12 colon): > 25 µM
- GI50 (LOX IMVI melanoma): > 23.2 µM
- TGI (LOX IMVI melanoma): > 25 µM
- GI50 (M14 melanoma): > 25 µM
- TGI (M14 melanoma): > 25 µM
- GI50 (OVCAR-5 ovarian): > 25 µM
- TGI (OVCAR-5 ovarian): > 25 µM
- GI50 (SF-268 CNS): 5.41 µM
- TGI (SF-268 CNS): > 25 µM
- GI50 (SNB-75 CNS): 9.66 µM
- TGI (SNB-75 CNS): > 25 µM
- GI50 (UO-31 renal): 4.04 µM
- TGI (UO-31 renal): > 23.9 µM

Structure (SMILES): Cc1c(C(=O)O)oc2ccc([N+](=O)[O-])cc12
- TGI (ACHN renal): > 100 µM
- TGI (HCT-116 colon): > 100 µM
- TGI (HL-60(TB) leukemia): > 100 µM
- TGI (KM12 colon): > 100 µM
- TGI (LOX IMVI melanoma): > 100 µM
- TGI (M14 melanoma): > 100 µM
- TGI (OVCAR-5 ovarian): > 100 µM
- TGI (SF-268 CNS): > 100 µM
- TGI (UO-31 renal): > 100 µM

Structure (SMILES): CSC1=Nc2ccccc2N=C(c2ccc(Cl)cc2)C1
- TGI (ACHN renal): > 100 µM
- TGI (HCT-116 colon): > 100 µM
- TGI (HL-60(TB) leukemia): > 100 µM
- TGI (KM12 colon): > 100 µM
- TGI (LOX IMVI melanoma): 72.1 µM
- TGI (M14 melanoma): > 100 µM
- TGI (OVCAR-5 ovarian): > 100 µM
- TGI (SF-268 CNS): > 100 µM
- TGI (UO-31 renal): > 100 µM

Structure (SMILES): CSc1nnc(COc2ccc(Cl)cc2)o1
- TGI (ACHN renal): > 100 µM
- TGI (HCT-116 colon): > 100 µM
- TGI (KM12 colon): > 100 µM
- TGI (LOX IMVI melanoma): > 100 µM
- TGI (M14 melanoma): > 100 µM
- TGI (OVCAR-5 ovarian): > 100 µM
- TGI (SF-268 CNS): > 100 µM
- TGI (SNB-75 CNS): > 100 µM
- TGI (UO-31 renal): > 100 µM

Structure (SMILES): CCOC(=O)/C(C#N)=C\C=C(/Cl)c1ccc(Cl)cc1
- GI50 (ACHN renal): 18.3 µM
- TGI (ACHN renal): 32.6 µM
- GI50 (HCT-116 colon): 11.2 µM
- TGI (HCT-116 colon): 24.3 µM
- GI50 (KM12 colon): 20 µM
- TGI (KM12 colon): 45.8 µM
- GI50 (LOX IMVI melanoma): 4.82 µM
- TGI (LOX IMVI melanoma): 18.6 µM
- GI50 (M14 melanoma): 14.8 µM
- TGI (M14 melanoma): 31.4 µM
- GI50 (OVCAR-5 ovarian): 29.7 µM
- TGI (OVCAR-5 ovarian): 59.4 µM
- GI50 (SF-268 CNS): 27.9 µM
- TGI (SF-268 CNS): > 77 µM
- GI50 (SNB-75 CNS): 20.5 µM
- TGI (SNB-75 CNS): 39.9 µM
- GI50 (UO-31 renal): 18 µM
- TGI (UO-31 renal): 35.4 µM

Structure (SMILES): C[N+](C)(C)CC1CCCCC1O (stereo not drawn)
- TGI (ACHN renal): > 100 µM
- TGI (HCT-116 colon): > 100 µM
- TGI (LOX IMVI melanoma): > 100 µM
- TGI (M14 melanoma): > 100 µM
- TGI (OVCAR-5 ovarian): > 100 µM
- TGI (SF-268 CNS): > 100 µM
- TGI (SNB-75 CNS): > 100 µM
- TGI (UO-31 renal): > 100 µM
